The values below come from patent US9815796B2 (Merck Sharp & Dohme Corp., priority 2013, dated 2017).

The target of the test is Rhesus PDE2A3 (Macaca mulatta, UniProt B3VTJ2). In words: PDE2 fluorescence polarization (IMAP FP) inhibition assay, rhesus enzyme. The format is biochemical, rhesus macaque. The method, boiled down: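 Rhesus PDE2A3 came from lysate of transiently transfected AD293 cells, diluted to give 20% substrate conversion. Substrate was 50 nM FAM-cAMP with 1 uM cGMP activator in Tris pH 7.2/MgCl2 buffer, run 60 min at room temperature over 10-point 3-fold dilutions in 1% DMSO. Read-out was IMAP fluorescence polarization (mP) after ≥1 h binding.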

[1] abbreviates: Rhesus PDE2, Lab B, read-out: Rhesus PDE2 Ki (nM) - Lab B.
Where [2] appears, read: Rhesus PDE2, Lab A, read-out: Rhesus PDE2 Ki (nM) - Lab A.

Like-named read-outs stand apart in the source and are kept apart here.

Rhesus PDE2A3, sequence (B3VTJ2 1-941): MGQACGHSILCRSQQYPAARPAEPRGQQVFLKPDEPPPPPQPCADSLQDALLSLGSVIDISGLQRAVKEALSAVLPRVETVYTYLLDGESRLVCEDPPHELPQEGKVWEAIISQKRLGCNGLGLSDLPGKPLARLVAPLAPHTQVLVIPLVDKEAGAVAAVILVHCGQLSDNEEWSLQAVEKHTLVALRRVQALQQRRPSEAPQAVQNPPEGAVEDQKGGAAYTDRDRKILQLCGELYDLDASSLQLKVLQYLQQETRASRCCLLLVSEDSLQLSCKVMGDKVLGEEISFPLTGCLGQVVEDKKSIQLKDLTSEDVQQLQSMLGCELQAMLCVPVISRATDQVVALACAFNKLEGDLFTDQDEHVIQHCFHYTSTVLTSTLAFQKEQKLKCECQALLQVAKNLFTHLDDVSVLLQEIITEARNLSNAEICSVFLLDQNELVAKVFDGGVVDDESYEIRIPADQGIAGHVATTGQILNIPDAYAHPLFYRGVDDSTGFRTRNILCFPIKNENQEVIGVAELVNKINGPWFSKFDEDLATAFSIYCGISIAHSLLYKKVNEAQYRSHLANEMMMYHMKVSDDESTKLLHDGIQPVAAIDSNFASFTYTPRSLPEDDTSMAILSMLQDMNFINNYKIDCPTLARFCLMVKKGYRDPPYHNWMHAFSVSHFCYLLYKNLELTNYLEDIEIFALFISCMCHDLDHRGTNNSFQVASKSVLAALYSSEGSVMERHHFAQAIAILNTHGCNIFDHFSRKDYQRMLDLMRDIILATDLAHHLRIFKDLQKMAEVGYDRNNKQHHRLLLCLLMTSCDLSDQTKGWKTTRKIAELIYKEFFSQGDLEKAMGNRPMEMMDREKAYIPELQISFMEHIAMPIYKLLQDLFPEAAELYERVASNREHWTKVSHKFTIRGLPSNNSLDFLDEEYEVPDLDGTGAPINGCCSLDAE

Take `O=C(c1cc(=O)[nH]c(-c2ccccc2)n1)N1Cc2cnc(-c3ccccc3)nc2C1` [Example 409, 2-phenyl-6-[(2-phenyl-5,7-dihydro-6H-pyrrolo[3,4-d]pyrimidin-6-yl)carbonyl]pyrimidin-4(3H)-one]: the Ki under setting [1] worked out at 3930 nM.

For `Cc1nc(C(=O)NC(C)c2cccc(-c3ccc(F)cc3)c2)cc(=O)[nH]1` (stereo not drawn) [Example 267, N-[1-(4′-fluorobiphenyl-3-yl)ethyl]-2-methyl-6-oxo-1,6-dihydropyrimidine-4-carboxamide], the inhibitory constant (Ki) under setting [2] turned out to be 8060 nM.

In the case of `O=C(NC1(c2ccccc2OC(F)(F)F)CCC1)c1cc(=O)[nH]c(-c2ccccc2)n1` [Example 411, 6-oxo-2-phenyl-N-{1-[2-(trifluoromethoxy)phenyl]cyclobutyl}-1,6-dihydropyrimidine-4-carboxamide], under setting [1], the inhibitory constant (Ki) was 1460 nM.

For the compound `C[C@@H](NC(=O)c1cc(=O)[nH]c(-c2ncccn2)n1)c1cc(F)c(C(F)(F)F)cc1F` [Example 429, N-{(1R)-1-[2,5-difluoro-4-(trifluoromethyl)phenyl]ethyl}-6-oxo-1,6-dihydro-2,2′-bipyrimidine-4-carboxamide], the Ki under setting [1] was determined as 42 nM.

On to `COc1ccc(C(NC(=O)c2cc(=O)[nH]c(-c3ncccn3)n2)c2ccc(C(F)(F)F)cc2)cc1` (stereo not drawn) [Example 87, N-{(4-methoxyphenyl)[4-(trifluoromethyl)phenyl]methyl}-6-oxo-1,6-dihydro-2,2′-bipyrimidine-4-carboxamide], for which the Ki under setting [2] was determined as 1920 nM.

`COc1cc(C(F)(F)F)ccc1[C@H](C)NC(=O)c1cc(=O)[nH]c(C2CC2)n1` [Example 223, 2-cyclopropyl-N-{(1S)-1-[2-methoxy-4-(trifluoromethyl)phenyl]ethyl}-6-oxo-1,6-dihydropyrimidine-4-carboxamide]: under setting [2], the Ki turned out to be 1020 nM.

With `CC(C)(NC(=O)c1cc(=O)[nH]c(-c2ncccn2)n1)c1ccc(SC(F)(F)F)c(F)c1` [Example 241, N-(1-{3-fluoro-4-[(trifluoromethyl)sulfanyl]phenyl}-1-methylethyl)-6-oxo-1,6-dihydro-2,2′-bipyrimidine-4-carboxamide], under setting [2], the inhibition constant (Ki) worked out at 557 nM.

For `CN(Cc1ccc(C(F)(F)F)cc1)C(=O)c1cc(=O)[nH]c(-c2ccccc2)n1` [Example 345, N-methyl-6-oxo-2-phenyl-N-[4-(trifluoromethyl)benzyl]-1,6-dihydropyrimidine-4-carboxamide], the Ki under setting [2] came to 8340 nM.

With `CC(NC(=O)c1cc(=O)[nH]c(-c2ccccc2)n1)c1ccc2c(c1)OCO2` (stereo not drawn) [Example 376, N-[1-(1,3-benzodioxol-5-yl)ethyl]-6-oxo-2-phenyl-1,6-dihydropyrimidine-4-carboxamide], the Ki under setting [2] was around 672 nM and the Ki under setting [1] worked out at 891 nM.

Take `CC(C)(NC(=O)c1cc(=O)[nH]c(-c2ncccn2)n1)c1ccc(OC(F)(F)F)cc1` [Example 289, N-{1-methyl-1-[4-(trifluoromethoxy)phenyl]ethyl}-6-oxo-1,6-dihydro-2,2′-bipyrimidine-4-carboxamide]: the Ki under setting [2] came out at 2320 nM.

Consider `Cc1nc(C(=O)N[C@H](C)c2ccc(-c3ccc(C(F)(F)F)cc3)cc2)cc(=O)[nH]1` [Example 318, 2-methyl-6-oxo-N-{(1R)-1-[4′-(trifluoromethyl)biphenyl-4-yl]ethyl}-1,6-dihydropyrimidine-4-carboxamide], for which the Ki by setting is: under setting [2], 73 nM; under setting [1], 189 nM.

Consider `COc1cc(C(F)(F)F)ccc1[C@@H](C)NC(=O)c1cc(=O)[nH]c(-c2ncccn2)n1` [Example 109, N-{(1R)-1-[2-methoxy-4-(trifluoromethyl)phenyl]ethyl}-6-oxo-1,6-dihydro-2,2′-bipyrimidine-4-carboxamide], for which, under setting [2], the Ki stood at 342 nM.

On to `Cc1nc(C(=O)N[C@@H](C)c2cccc3ccccc23)cc(=O)[nH]1` [Example 302, 2-methyl-N-[(3S)-1-naphthalen-1-ylethyl]-6-oxo-1,6-dihydropyrimidine-4-carboxamide], for which the Ki under setting [2] is 51400 nM.

`CC[C@@H](NC(=O)c1cc(=O)[nH]c(C(C)(C)c2ccc(OC)cc2)n1)c1ccc(C(F)(F)F)c(F)c1` [Example 503, N-{(1R)-1-[3-fluoro-4-(trifluoromethyl)phenyl]propyl}-2-[1-(4-methoxyphenyl)-1-methylethyl]-6-oxo-1,6-dihydropyrimidine-4-carboxamide]: the inhibitory constant (Ki) under setting [1] is 111 nM.

As to `CC(C)c1ccc(CCNC(=O)c2cc(=O)[nH]c(-c3ccccc3)n2)cc1` [Example 348, N-{2-[4-(1-methylethyl)phenyl]ethyl}-6-oxo-2-phenyl-1,6-dihydropyrimidine-4-carboxamide], the Ki was around 877 nM under setting [2] and 1500 nM under setting [1].

For the compound `CC(NC(=O)c1cc(=O)[nH]c(-c2ccccc2)n1)c1cccc(OC(F)(F)F)c1` (stereo not drawn) [Example 422, 6-oxo-2-phenyl-N-{1-[3-(trifluoromethoxy)phenyl]ethyl}-1,6-dihydropyrimidine-4-carboxamide], the Ki under setting [1] came out at 1840 nM.

`C[C@@H](NC(=O)c1cc(=O)[nH]c(-c2ccccc2)n1)c1ccccc1` [Example 342, 6-oxo-2-phenyl-N-[(1R)-1-phenylethyl]-1,6-dihydropyrimidine-4-carboxamide]: the Ki is, setting by setting: under setting [2], around 605 nM; under setting [1], 963 nM.

Regarding `O=C(NC(c1ccccc1)c1ccc(C(F)(F)F)cc1)c1cc(=O)[nH]c(C2CC2)n1` (stereo not drawn) [Example 196, 2-cyclopropyl-6-oxo-N-{phenyl[4-(trifluoromethyl)phenyl]methyl}-1,6-dihydropyrimidine-4-carboxamide], the Ki under setting [2] is 915 nM.

For `CC(C)(NC(=O)c1cc(=O)[nH]c(-c2ccccc2)n1)c1ccc(F)cc1` [Example 349, N-[1-(4-fluorophenyl)-1-methylethyl]-6-oxo-2-phenyl-1,6-dihydropyrimidine-4-carboxamide], the inhibitory constant (Ki) under setting [2] is around 525 nM and the inhibition constant (Ki) under setting [1] worked out at 713 nM.

As for `COCc1nc(C(=O)NC(CO)c2ccc(C(F)(F)F)cc2)cc(=O)[nH]1` (stereo not drawn) [Example 112, N-{2-hydroxy-1-[4-(trifluoromethyl)phenyl]ethyl}-2-(methoxymethyl)-6-oxo-1,6-dihydropyrimidine-4-carboxamide], the Ki under setting [2] is 1110 nM.

With `CC(C)(NC(=O)c1cc(=O)[nH]c(-c2ccccc2)n1)c1cccc(Br)c1` [Example 400, N-[1-(3-bromophenyl)-1-methylethyl]-6-oxo-2-phenyl-1,6-dihydropyrimidine-4-carboxamide], the Ki under setting [1] is 1070 nM.

Turning to `COc1ccc2cc(C(C)NC(=O)c3cc(=O)[nH]c(C)n3)ccc2c1` (single isomer, unassigned) [Example 314, (S)- or (R)-N-[1-(6-methoxynaphthalen-2-yl)ethyl]-2-methyl-6-oxo-1,6-dihydropyrimidine-4-carboxamide], the Ki under setting [2] was 4740 nM.

For `C[C@@H](NC(=O)c1cc(=O)[nH]c(C2CC2)n1)c1ccc(C(F)(F)F)c2ccccc12` [Example 235, 2-cyclopropyl-6-oxo-N-{(1R)-1-[4-(trifluoromethyl)naphthalen-1-yl]ethyl}-1,6-dihydropyrimidine-4-carboxamide], under setting [2], the Ki turned out to be 274 nM.

On to `COc1ccc([C@@H](C)NC(=O)c2cc(=O)[nH]c(C3CC3)n2)cc1` [Example 216, 2-cyclopropyl-N-[(1R)-1-(4-methoxyphenyl)ethyl]-6-oxo-1,6-dihydropyrimidine-4-carboxamide], for which the Ki under setting [2] is 247 nM.

Consider `COc1cc(C(C)NC(=O)c2cc(=O)[nH]c(C3CC3)n2)ccc1C(F)(F)F` (stereo not drawn) [Example 226, 2-cyclopropyl-N-{1-[3-methoxy-4-(trifluoromethyl)phenyl]ethyl}-6-oxo-1,6-dihydropyrimidine-4-carboxamide], for which the inhibition constant Ki under setting [2] came out at 505 nM.

As to `O=C(NC(c1ccncc1)c1ccc(C(F)(F)F)cc1)c1cc(=O)[nH]c(-c2ccccc2)n1` (stereo not drawn) [Example 399, 6-oxo-2-phenyl-N-{pyridin-4-yl[4-(trifluoromethyl)phenyl]methyl}-1,6-dihydropyrimidine-4-carboxamide], the Ki under setting [1] was 407 nM.

Consider `Cc1nc(C(=O)NC(C)c2ccc(C(C)(C)C)cc2)cc(=O)[nH]1` (single isomer, unassigned) [Example 310, (S)- or (R)-N-[1-(4-tert-butylphenyl)ethyl]-2-methyl-6-oxo-1,6-dihydropyrimidine-4-carboxamide], for which the Ki under setting [2] amounted to 5650 nM.

Regarding `C[C@@H](NC(=O)c1cc(=O)[nH]c(-c2ccccc2)n1)c1ccc(O)cc1` [Example 339, N-[(1R)-1-(4-hydroxyphenyl)ethyl]-6-oxo-2-phenyl-1,6-dihydropyrimidine-4-carboxamide], the Ki under setting [2] was around 417 nM and the Ki under setting [1] is 653 nM.

With `CC(NC(=O)c1cc(=O)[nH]c(-c2ccccc2)n1)c1ncc(C(F)(F)F)cn1` (stereo not drawn) [Example 170, 6-oxo-2-phenyl-N-{1-[5-(trifluoromethyl)pyrimidin-2-yl]ethyl}-1,6-dihydropyrimidine-4-carboxamide], the Ki under setting [2] stood at 2340 nM.

Take `C[C@H](NC(=O)c1cc(=O)[nH]c(-c2ccccc2)n1)c1cccc2ccccc12` [Example 362, N-[(1S)-1-naphthalen-1-ylethyl]-6-oxo-2-phenyl-1,6-dihydropyrimidine-4-carboxamide]: the Ki under setting [1] is around 24700 nM.

On to `Cc1nc(C(=O)N[C@H](C)c2ccc([S+]([O-])C(F)(F)F)cc2)cc(=O)[nH]1` (stereo partly drawn) [Example 330], for which the Ki under setting [2] came out at 809 nM.

Regarding `Cc1nc(C(=O)N[C@H](C)c2ccc(C(F)(F)F)c3ccccc23)cc(=O)[nH]1` [Example 28, 2-methyl-6-oxo-N-{(1R)-1-[4-(trifluoromethyl)naphthalen-1-yl]ethyl}-1,6-dihydropyrimidine-4-carboxamide], the Ki under setting [2] was found to be 3490 nM.

With `C[C@H](NC(=O)c1cc(=O)[nH]c(-c2ccccc2)n1)c1ccc(Cl)cc1` [Example 394, N-[(1S)-1-(4-chlorophenyl)ethyl]-6-oxo-2-phenyl-1,6-dihydropyrimidine-4-carboxamide], the Ki under setting [1] amounted to 2220 nM.
